In US20230414598A1, “COMBINATION THERAPIES WITH CBL-B INHIBITOR COMPOUNDS AND ANTIEMETIC AGENTS” (NURIX THERAPEUTICS, INC., priority 2022, published 2023):
One block for each compound: values may come before it.

Legend:
Assay type in all cases: in vivo, human
[1] = Pharmacokinetic analysis of compound 23 plasma concentrations in patients (LC-MS/MS, non-compartmental); settings: for AUC(0-t) / Cmax / half-life / Tmax: human, plasma; for AUC(0-t) / Cmax: geometric mean; for half-life: mean; for Tmax: median
Experimental: Patients were administered doses of compound 23 ranging from 5 to 50 mg once daily. Plasma concentrations of compound 23 were quantified using acetonitrile precipitation and LC-MS/MS. The peak area of the product ion of the analyte was measured against the peak area of the product ion of the stable label internal standard. A calibration curve spanning the curve range and containing at least six conentrations in duplicate was used to quantify the analyte concentration. The retention times of the analyte and internal standard are approximately 1.5 minutes. PK analyses were donucted using non-compartmental analyses to obtain PK parameters. […] Patients were administered doses of compound 23 ranging from 5 to 50 mg once daily. Plasma concentrations of compound 23 were quantified using acetonitrile precipitation and LC-MS/MS. The peak area of the product ion of the analyte was measured against the peak area of the product ion of the stable label internal standard. A calibration curve spanning the curve range and containing at least six conentrations in duplicate was used to quantify the analyte concentration. The retention times of the analyte and internal standard are approximately 1.5 minutes. PK analyses were donucted using non-compartmental analyses to obtain PK parameters. […] PK data are provided below (Cmax and AUC0-last are presented as geometric mean (geometric %C V); Tmax is presented as median (range); t1/2 is presented as mean (% CV).

[2] = Adverse events after oral administration of compound 23 to patients
Experimental: The nausea and vomiting symptoms were mitigated when a single oral (versus other routes of adminstration such as intravenous) dose of 5-HT3 antagonist was administered 30-60 minutes prior to the compound 23 dosing. […] The adverse events (e.g., symptoms include nausea, vomiting, headache, hypotension, tachycardia, bradycardia, among others) were resolved within 24 hours prior to the next dose. The nausea and vomiting were controlled by serotonin (5-HT3) receptor blockers, ondansetron and granisetron.

[3] = tested on: patient's nausea and vomiting symptoms; experiment: Antiemetic given prior to compound 23: control of nausea and vomiting; settings: for effect on emetic symptoms (nausea and vomiting): single oral dose 30-60 minutes prior to compound 23 dosing
Experimental: Prior to administration of compound 23, the antiemetic was administered as outlined below. Example 1: ondansetron via IV: 8 mg or 0.15 mg/kg as single dose; maximum dose of 16 mg/dose. Example 1B: ondansetron via oral: 8 mg up to twice daily. In this example, the patient was weaned off ondansetron via oral after two weeks. […] Example 2: granisetron via IV: 1 mg or 10 mcg/kg as a single dose. Example 2B granisetron via oral: 2 mg as a single dose. In this example, the patient was weaned off oral granisetron after four weeks. […] Example 2C: granisetron via SUBQ: 10 mg as single dose. Example 2D: granisetron via transdermal: apply one patch. Example 5: metoclopramide, a dopamine antagonist, via oral: 10 mg 30 minutes prior to the adminstration of compound 23. […] Example 6: diphenhydramine, a histamine antagonist, via oral or parental: 25 mg or 50 mg 30 minutes prior to the adminstration of compound 23.

[4] = tested on: 5-HT; experiment: 5-HT levels in the local gut after compound 23; settings: after administration of compound 23
[5] = Cycle 1 Day 1, 5 mg once daily (n = 1)
[6] = Cycle 1 Day 1, 15 mg once daily (n = 9)
[7] = Cycle 1 Day 1, 25 mg once daily (n = 6)
[8] = Cycle 1 Day 1, 50 mg once daily (n = 2)
[9] = 25 mg and 50 mg single daily dose administered fasting

accumulation upon repeat daily dosing ([1]; 5 to 50 mg once daily): no accumulation
dose proportionality of exposures ([1]; 5 to 50 mg once daily): dose-proportional increase in exposures
AUC(0-t) [1, 5]: 26.2 ng·h/mL
Cmax [1, 5]: 4.35 ng/mL
half-life [1, 5]: 7.72 h
Tmax [1, 5]: 2 h
AUC(0-t) [1, 6]: 129 ng·h/mL
Cmax [1, 6]: 16.2 ng/mL
half-life [1, 6]: 7.14 h
Tmax [1, 6]: 2 h
AUC(0-t) [1, 7]: 201 ng·h/mL
Cmax [1, 7]: 30.1 ng/mL
half-life [1, 7]: 6.82 h
Tmax [1, 7]: 1.5 h
AUC(0-t) [1, 8]: 502 ng·h/mL
Cmax [1, 8]: 79.2 ng/mL
half-life [1, 8]: 5.88 h
Tmax [1, 8]: 2.5 h
Compound: C[C@H]1CCCN(Cc2cc3c(c(C(F)(F)F)c2)CN(c2cccc([C@]4(c5nncn5C)C[C@@H](C)C4)c2)C3=O)C1 [Compound 23]
adverse events induced [2, 9]: signficant events of nausea, vomiting, synocope, tachycardia, hypotension, and bradycardia
time to onset of adverse events [2, 9]: ≤ 2 h
time to resolution of adverse events ([2]; nausea, vomiting, headache, hypotension, tachycardia, bradycardia, prior to the next dose): ≤ 24 h
need for antiemetic after weaning ([3]; daily compound 23 after patient weaned off oral granisetron after four weeks): without the need for granisetron
need for antiemetic after weaning ([3]; daily compound 23 after patient weaned off oral ondansetron after two weeks): without the need for ondanesetron
levels of 5-HT in the local gut [4]: increased levels of 5-HT in the local gut

Compound: CN(C)CCOC(c1ccccc1)c1ccccc1 [diphenhydramine]
control of nausea and vomiting symptoms ([3]; oral or parenteral 25 mg or 50 mg 30 minutes prior to compound 23): did not control the patient's nausea and vomiting sympotms

Compound: CN1C2CCCC1CC(NC(=O)c1nn(C)c3ccccc13)C2 (stereo not shown) [granisetron]
effect on emetic symptoms (nausea and vomiting) [3]: reduced emetic symptoms

Compound: CCN(CC)CCNC(=O)c1cc(Cl)c(N)cc1OC [metoclopramide]
control of nausea and vomiting symptoms ([3]; oral 10 mg 30 minutes prior to compound 23): did not control the patient's nausea and vomiting sympotms

Compound: Cc1nccn1CC1CCc2c(c3ccccc3n2C)C1=O (stereo not shown) [ondansetron]
effect on emetic symptoms (nausea and vomiting) [3]: reduced emetic symptoms
